Reference: paper PMC9516332 (Frontiers in Oncology, 2022)
pIC50: −log10 of the molar value. Like-named read-outs stand apart in the source and are kept apart here.

How the values were obtained:
AP-1060 (ETV6-NTRK3) = assay: Cell viability assay; conditions: read-out: IC50 in cell proliferation assay
134 cancer cell lines = assay: Cell viability assay (ATPlite, 72 hours), IC50 on cancer cell line panel

Structure (SMILES): CC(C)(C)c1nc(-c2cccc(NS(=O)(=O)c3c(F)cccc3F)c2F)c(-c2ccnc(N)n2)s1 [dabrafenib]
- pIC50 (AP-1060 (ETV6-NTRK3)): 5.60
- pIC50 (134 cancer cell lines; HEC-6, read-out: IC50 in cell proliferation assay, HEC-6 cell line (EGFR p.A289V)): < 5.00
- pIC50 (134 cancer cell lines; Homo sapiens, 769-P, read-out: IC50 in cell proliferation assay, cell line 769-P): 5.98
- pIC50 (134 cancer cell lines; Homo sapiens, 786-0, read-out: IC50 in cell proliferation assay, cell line 786-O): 5.77
- pIC50 (134 cancer cell lines; Homo sapiens, A 172, read-out: IC50 in cell proliferation assay, cell line A-172): < 5.00
- pIC50 (134 cancer cell lines; Homo sapiens, A204, read-out: IC50 in cell proliferation assay, cell line A-204): 5.70
- pIC50 (134 cancer cell lines; Homo sapiens, A498, read-out: IC50 in cell proliferation assay, cell line A-498): 6.12
- pIC50 (134 cancer cell lines; Homo sapiens, A549, read-out: IC50 in cell proliferation assay, cell line A-549): 5.58
- pIC50 (134 cancer cell lines; Homo sapiens, A704, read-out: IC50 in cell proliferation assay, cell line A-704): 6.09
- pIC50 (134 cancer cell lines; Homo sapiens, A-375, read-out: IC50 in cell proliferation assay, cell line A-375 (BRAF p.V600E)): 7.15
- pIC50 (134 cancer cell lines; Homo sapiens, A-427, read-out: IC50 in cell proliferation assay, cell line A-427): 5.65
- pIC50 (134 cancer cell lines; Homo sapiens, ACHN, read-out: IC50 in cell proliferation assay, cell line ACHN): 6.22
- pIC50 (134 cancer cell lines; Homo sapiens, AN3-CA, read-out: IC50 in cell proliferation assay, cell line AN3-CA (FGFR2 p.N549K)): 5.58
- pIC50 (134 cancer cell lines; Homo sapiens, ASPC1, read-out: IC50 in cell proliferation assay, cell line AsPC-1): < 5.00
- pIC50 (134 cancer cell lines; Homo sapiens, AU565, read-out: IC50 in cell proliferation assay, cell line AU565 (ERBB2 amplification)): 6.01
- pIC50 (134 cancer cell lines; Homo sapiens, BT-20, read-out: IC50 in cell proliferation assay, cell line BT-20): < 5.00
- pIC50 (134 cancer cell lines; Homo sapiens, BT-474, read-out: IC50 in cell proliferation assay, cell line BT-474 (ERBB2 amplification)): < 5.00
- pIC50 (134 cancer cell lines; Homo sapiens, BT-549, read-out: IC50 in cell proliferation assay, cell line BT-549): 5.82
- pIC50 (134 cancer cell lines; Homo sapiens, BXPC-3, read-out: IC50 in cell proliferation assay, cell line BxPC-3): 6.17
- pIC50 (134 cancer cell lines; Homo sapiens, C-33-A, read-out: IC50 in cell proliferation assay, cell line C-33 A): < 5.00
- pIC50 (134 cancer cell lines; Homo sapiens, CAL-27, read-out: IC50 in cell proliferation assay, cell line CAL-27): < 5.00
- pIC50 (134 cancer cell lines; Homo sapiens, CCF-STTG1, read-out: IC50 in cell proliferation assay, cell line CCF-STTG1): < 5.00
- pIC50 (134 cancer cell lines; Homo sapiens, CCRF-CEM, read-out: IC50 in cell proliferation assay, cell line CCRF-CEM): 5.80
- pIC50 (134 cancer cell lines; Homo sapiens, COLO 205, read-out: IC50 in cell proliferation assay, cell line COLO 205 (BRAF p.V600E)): 7.77
- pIC50 (134 cancer cell lines; Homo sapiens, COLO-829, read-out: IC50 in cell proliferation assay, cell line COLO 829 (BRAF p.V600E)): 7.36
- pIC50 (134 cancer cell lines; Homo sapiens, DLD-1, read-out: IC50 in cell proliferation assay, cell line DLD-1): 5.97
- pIC50 (134 cancer cell lines; Homo sapiens, DU-4475, read-out: IC50 in cell proliferation assay, cell line DU4475 (BRAF p.V600E)): 7.26
- pIC50 (134 cancer cell lines; Homo sapiens, Daoy, read-out: IC50 in cell proliferation assay, cell line Daoy): 6.04
- pIC50 (134 cancer cell lines; Homo sapiens, DoTc2-4510, read-out: IC50 in cell proliferation assay, cell line DoTc2 4510): < 5.00
- pIC50 (134 cancer cell lines; Homo sapiens, EOL1, read-out: IC50 in cell proliferation assay, cell line EoL-1 (FIP1L1-PDGFRA)): 5.57
- pIC50 (134 cancer cell lines; Homo sapiens, FaDu, read-out: IC50 in cell proliferation assay, cell line FaDu): 5.58
- pIC50 (134 cancer cell lines; Homo sapiens, G-361, read-out: IC50 in cell proliferation assay, cell line G-361 (BRAF p.V600E)): 7.33
- pIC50 (134 cancer cell lines; Homo sapiens, HCC827, read-out: IC50 in cell proliferation assay, cell line HCC827 (EGFR exon19del)): 5.90
- pIC50 (134 cancer cell lines; Homo sapiens, HCC4006, read-out: IC50 in cell proliferation assay, cell line HCC4006 (EGFR exon19del)): < 5.00
- pIC50 (134 cancer cell lines; Homo sapiens, HCT-15, read-out: IC50 in cell proliferation assay, cell line HCT 15): 5.82
- pIC50 (134 cancer cell lines; Homo sapiens, HCT-116, read-out: IC50 in cell proliferation assay, cell line HCT 116): 5.95
- pIC50 (134 cancer cell lines; Homo sapiens, HEC-1, read-out: IC50 in cell proliferation assay, HEC-1 cell line): 5.90
- pIC50 (134 cancer cell lines; Homo sapiens, HEC-1B, read-out: IC50 in cell proliferation assay, HEC-1-B cell line (EGFR p.A864V)): < 5.00
- pIC50 (134 cancer cell lines; Homo sapiens, HL-60, read-out: IC50 in cell proliferation assay, HL-60 cell line): < 5.00
- pIC50 (134 cancer cell lines; Homo sapiens, HT, read-out: IC50 in cell proliferation assay, HT cell line): < 5.00
- pIC50 (134 cancer cell lines; Homo sapiens, HT-1080, read-out: IC50 in cell proliferation assay, HT-1080 cell line): 6.01
- pIC50 (134 cancer cell lines; Homo sapiens, Hs746T, read-out: IC50 in cell proliferation assay, Hs 746.T cell line (MET exon14skip + amplification)): < 5.00
- pIC50 (134 cancer cell lines; Homo sapiens, Hs-578T, read-out: IC50 in cell proliferation assay, Hs 578T cell line): 5.95
- pIC50 (134 cancer cell lines; Homo sapiens, HuTu80, read-out: IC50 in cell proliferation assay, HuTu 80 cell line): 5.52
- pIC50 (134 cancer cell lines; Homo sapiens, J82, read-out: IC50 in cell proliferation assay, J82 cell line): < 5.00
- pIC50 (134 cancer cell lines; Homo sapiens, Jurkat E6.1, read-out: IC50 in cell proliferation assay, Jurkat E6.1 cell line): 5.89
- pIC50 (134 cancer cell lines; Homo sapiens, K562, read-out: IC50 in cell proliferation assay, K-562 cell line): < 5.00
- pIC50 (134 cancer cell lines; Homo sapiens, KATO III, read-out: IC50 in cell proliferation assay, KATO III cell line (FGFR2 amplification)): 5.75
- pIC50 (134 cancer cell lines; Homo sapiens, KG-1, read-out: IC50 in cell proliferation assay, KG-1 cell line (FGFR1OP2-FGFR1)): 5.92
- pIC50 (134 cancer cell lines; Homo sapiens, KLE, read-out: IC50 in cell proliferation assay, KLE cell line): 5.81
- pIC50 (134 cancer cell lines; Homo sapiens, KMS-11, read-out: IC50 in cell proliferation assay, KMS-11 cell line (FGFR3 p.Y373C)): < 5.00
- pIC50 (134 cancer cell lines; Homo sapiens, KU812, read-out: IC50 in cell proliferation assay, Ku812 cell line): 5.06
- pIC50 (134 cancer cell lines; Homo sapiens, Kasumi 1, read-out: IC50 in cell proliferation assay, Kasumi-1 cell line (KIT p.N822K)): 5.04
- pIC50 (134 cancer cell lines; Homo sapiens, LC-2-ad, read-out: IC50 in cell proliferation assay, LC-2/ad cell line (CCDC6-RET)): 5.68
- pIC50 (134 cancer cell lines; Homo sapiens, LNCaP-Clone-FGC, read-out: IC50 in cell proliferation assay, LNCaP clone FGC cell line): 5.56
- pIC50 (134 cancer cell lines; Homo sapiens, LS174T, read-out: IC50 in cell proliferation assay, LS174T cell line): < 5.00
- pIC50 (134 cancer cell lines; Homo sapiens, LS-411N, read-out: IC50 in cell proliferation assay, LS411N cell line (BRAF p.V600E)): 7.66
- pIC50 (134 cancer cell lines; Homo sapiens, LoVo, read-out: IC50 in cell proliferation assay, LoVo cell line): 5.36
- pIC50 (134 cancer cell lines; Homo sapiens, MCF7, read-out: IC50 in cell proliferation assay, MCF-7 cell line): < 5.00
- pIC50 (134 cancer cell lines; Homo sapiens, MDA-MB-231, read-out: IC50 in cell proliferation assay, MDA-MB-231 cell line): < 5.00
- pIC50 (134 cancer cell lines; Homo sapiens, MDA-MB-453, read-out: IC50 in cell proliferation assay, MDA-MB-453 cell line): < 5.00
- pIC50 (134 cancer cell lines; Homo sapiens, MDA-MB-468, read-out: IC50 in cell proliferation assay, MDA-MB-468 cell line): < 5.00
- pIC50 (134 cancer cell lines; Homo sapiens, MG-63, read-out: IC50 in cell proliferation assay, MG-63 cell line): < 5.00
- pIC50 (134 cancer cell lines; Homo sapiens, MIA PaCa-2, read-out: IC50 in cell proliferation assay, MIA PaCa-2 cell line): < 5.00
- pIC50 (134 cancer cell lines; Homo sapiens, MKN-45, read-out: IC50 in cell proliferation assay, MKN45 cell line (MET amplification)): < 5.00
- pIC50 (134 cancer cell lines; Homo sapiens, MOLM-13, read-out: IC50 in cell proliferation assay, MOLM-13 cell line (FLT3 ITD)): 5.24
- pIC50 (134 cancer cell lines; Homo sapiens, MOLT-4, read-out: IC50 in cell proliferation assay, MOLT-4 cell line): < 5.00
